In patent publication US20050267014A1, “Pharmaceutical composition comprising factor VII polypeptides and tranexamic acid” (Novo Nordisk HealthCare A/G, priority 2001, published 2005):

What was measured:
[1] = test system: clots formed by normal human plasma; assay: Clot lysis assay, normal human plasma diluted 10-fold, turbidity at 650 nm; format: biochemical; conditions: in the presence of 10 nM FVIIa
Experimental: Clot lysis assay: Normal human plasma diluted 10-fold with buffer (20 mM HEPES, 150 mM NaCl, 5 mM CaCl, pH 7.4) containing lapidated recombinant tissue factor (Innovin, Dade Behring, 2000-fold dilution), rFVIIa (Novo Nordisk A/S Bagsvaerd, Denmark, various concentrations) and t-PA (American Diagnostica, 8 nM) was added to 96-well ELISA plates and turbidity at 650 nm was measured over time at room temperature. Where indicated, Tranexamic acid (Sigma, various concentrations) was included.

whole human blood = assay: Whole blood rotation thrombelastography (ROTEG) clot strength; conditions: tranexamic acid in addition to FVIIa, tPA 2 nM

Question: Which results are given for `NC[C@H]1CC[C@H](C(=O)O)CC1` [Tranexamic acid]?
Answer: Tranexamic acid concentration at which prolongation of clot lysis time was optimal [1]: 1 µM; effect on clot lysis time ([1]; t-PA 8 nM): further prolongation of the clot lysis time; mechanical strength of the clot (whole human blood): increased the mechanical strength of the clot; overall survival time of the clot (whole human blood): increased
